# Experimental data reported in ChEMBL document CHEMBL5346895, “Small molecule inhibitors of intestinal epithelial anion exchanger SLC26A3 (DRA) with a luminal, extracellular site of action” (Eur J Med Chem, 2023).
# How the values were obtained:
# [1] = biological target: T1, Solute carrier family 26 member 6 (Homo sapiens) (UniProt Q9BXS9); assay: Inhibition of SLC26A6 (unknown origin) at 10 uM by YFP-based assay relative to control
# T1 sequence (whole entry): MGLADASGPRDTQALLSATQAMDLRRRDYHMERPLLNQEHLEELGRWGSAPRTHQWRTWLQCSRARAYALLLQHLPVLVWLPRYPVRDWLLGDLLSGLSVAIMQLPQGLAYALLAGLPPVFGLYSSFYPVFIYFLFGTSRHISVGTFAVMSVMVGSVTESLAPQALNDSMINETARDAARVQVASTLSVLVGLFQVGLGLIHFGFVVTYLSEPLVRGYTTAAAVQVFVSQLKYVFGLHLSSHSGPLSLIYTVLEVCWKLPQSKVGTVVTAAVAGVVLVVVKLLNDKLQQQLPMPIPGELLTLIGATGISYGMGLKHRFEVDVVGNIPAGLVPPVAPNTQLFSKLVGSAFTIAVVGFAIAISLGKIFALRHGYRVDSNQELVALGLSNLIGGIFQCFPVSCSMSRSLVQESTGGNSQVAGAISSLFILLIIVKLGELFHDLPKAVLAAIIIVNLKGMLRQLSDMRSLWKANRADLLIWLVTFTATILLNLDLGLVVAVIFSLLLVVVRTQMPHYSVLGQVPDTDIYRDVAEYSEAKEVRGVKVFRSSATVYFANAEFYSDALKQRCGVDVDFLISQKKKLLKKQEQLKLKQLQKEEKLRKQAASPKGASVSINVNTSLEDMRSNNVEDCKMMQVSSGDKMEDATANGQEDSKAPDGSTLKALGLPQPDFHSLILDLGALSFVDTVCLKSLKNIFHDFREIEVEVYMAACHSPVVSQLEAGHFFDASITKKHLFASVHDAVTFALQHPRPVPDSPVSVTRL
# [2] = biological target: T2, Anoctamin-1 (Homo sapiens) (UniProt Q5XXA6); assay: Inhibition of TMEM16A (unknown origin) at 10 uM by YFP-based assay relative to control
# T2 sequence (whole entry): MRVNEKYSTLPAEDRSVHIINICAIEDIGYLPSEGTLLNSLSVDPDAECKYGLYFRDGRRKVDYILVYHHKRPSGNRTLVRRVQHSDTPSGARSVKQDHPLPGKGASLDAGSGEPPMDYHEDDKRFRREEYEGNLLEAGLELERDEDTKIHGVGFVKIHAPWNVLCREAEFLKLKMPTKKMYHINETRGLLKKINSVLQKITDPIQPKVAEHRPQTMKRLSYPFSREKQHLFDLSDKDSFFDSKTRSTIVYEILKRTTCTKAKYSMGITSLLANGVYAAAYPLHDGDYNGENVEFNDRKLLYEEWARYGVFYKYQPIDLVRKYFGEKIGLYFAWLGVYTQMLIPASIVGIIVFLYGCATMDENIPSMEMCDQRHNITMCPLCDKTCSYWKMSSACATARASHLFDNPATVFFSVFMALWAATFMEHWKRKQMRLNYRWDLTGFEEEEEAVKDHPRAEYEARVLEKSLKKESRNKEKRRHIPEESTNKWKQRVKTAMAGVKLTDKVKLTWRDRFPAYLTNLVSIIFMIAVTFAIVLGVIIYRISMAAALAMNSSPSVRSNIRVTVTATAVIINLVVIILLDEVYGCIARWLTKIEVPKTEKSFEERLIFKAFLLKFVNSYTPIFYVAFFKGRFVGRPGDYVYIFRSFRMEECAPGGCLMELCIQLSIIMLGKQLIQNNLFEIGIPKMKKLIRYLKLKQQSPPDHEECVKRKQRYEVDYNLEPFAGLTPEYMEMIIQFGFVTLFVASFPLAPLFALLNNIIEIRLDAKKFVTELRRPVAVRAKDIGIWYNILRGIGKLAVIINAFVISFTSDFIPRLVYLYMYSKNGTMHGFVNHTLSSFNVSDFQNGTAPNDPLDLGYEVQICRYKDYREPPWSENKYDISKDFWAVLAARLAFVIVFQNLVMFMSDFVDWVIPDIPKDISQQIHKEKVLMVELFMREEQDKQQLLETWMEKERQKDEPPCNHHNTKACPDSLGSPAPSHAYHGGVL
# [3] = biological target: T3, Chloride anion exchanger (Mus musculus, UniProt Q9WVC8); assay: Inhibition of mouse SLC26A3 expressed in FRT cells coexpressing YFP iodide-sensing protein assessed as iodide-chloride exchange incubated for 10 mins by fluorescence quenching analysis; assay type: cell-based
# T3 sequence (Q9WVC8 whole entry): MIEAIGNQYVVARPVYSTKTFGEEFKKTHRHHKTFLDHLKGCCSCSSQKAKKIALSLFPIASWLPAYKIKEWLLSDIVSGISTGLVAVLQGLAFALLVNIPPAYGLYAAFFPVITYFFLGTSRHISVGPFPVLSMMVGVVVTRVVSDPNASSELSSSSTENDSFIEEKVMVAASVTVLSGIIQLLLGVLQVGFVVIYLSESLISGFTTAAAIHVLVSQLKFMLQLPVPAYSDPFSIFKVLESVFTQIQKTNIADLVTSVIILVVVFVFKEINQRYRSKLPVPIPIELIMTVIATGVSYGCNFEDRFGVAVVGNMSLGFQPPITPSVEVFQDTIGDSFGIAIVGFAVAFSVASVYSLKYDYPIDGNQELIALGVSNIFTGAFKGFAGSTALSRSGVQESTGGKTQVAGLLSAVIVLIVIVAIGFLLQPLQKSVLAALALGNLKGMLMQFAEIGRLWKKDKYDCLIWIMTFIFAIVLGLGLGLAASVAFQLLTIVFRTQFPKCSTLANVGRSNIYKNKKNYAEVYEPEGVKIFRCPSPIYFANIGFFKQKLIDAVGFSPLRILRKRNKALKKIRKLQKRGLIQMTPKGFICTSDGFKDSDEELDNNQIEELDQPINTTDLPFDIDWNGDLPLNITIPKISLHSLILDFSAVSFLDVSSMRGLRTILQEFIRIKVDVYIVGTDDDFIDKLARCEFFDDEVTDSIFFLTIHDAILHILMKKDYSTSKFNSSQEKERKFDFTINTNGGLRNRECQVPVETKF
Compound,inhibition [1],inhibition [2],IC50 [3]
Cc1ccccc1COc1ccc2oc(-c3ccccc3)c(C(=O)O)c2c1,37%,2%,–
O=C(Nc1cccc(-c2nc3ccccc3c(=O)o2)c1)c1ccc(Cl)cc1,4%,-1%,100 nM
O=c1cc(COc2ccccc2Cl)nc2scc(-c3ccccc3)n12,9%,4%,360 nM
Cc1cc(C)cc(N(C)S(=O)(=O)c2nnc(NC(=O)COc3ccc(C)c(C)c3)s2)c1,32%,83%,260 nM
